Several values for one entry are separate records, joined by “and”; a condition that tells them apart may be missing. Identical values can stand only once. Marks after values point to notes of the source that are not given here. [PEt] = P-ethoxy (ethyl phosphotriester) internucleoside linkage
Assay: Adverse events in study 2003-0578 (NCI CTCAE grading)
[1] = patient 1, 5 mg/m^2 monotherapy
[2] = patient 10, 5 mg/m^2 monotherapy

BP1001: liposome-incorporated P-ethoxy antisense oligodeoxynucleotide (5′-ATATTTGGCGATGGCTTC-3′, SEQ ID NO: 1) specific to grb2 mRNA, in neutral DOPC liposomes (DNA, all [PEt], methylation of C not given here; incorporated in neutral DOPC liposomes)
0: Blood and lymphatic system disorders ≥Grade 3, number of patients (monotherapy 60 mg/m^2 (n = 3)) | Cardiac disorders ≥Grade 3, number of patients (monotherapy 60 mg/m^2 (n = 3)) | Cataract ≥Grade 3, number of patients (monotherapy 60 mg/m^2 (n = 3)) | Dyspnea ≥Grade 3, number of patients (monotherapy 60 mg/m^2 (n = 3)) | Extremity Lower Edema ≥Grade 3, number of patients (monotherapy 60 mg/m^2 (n = 3)) | Eye disorders ≥Grade 3, number of patients (monotherapy 60 mg/m^2 (n = 3)) | Febrile neutropenia ≥Grade 3, number of patients (monotherapy 60 mg/m^2 (n = 3)) | Gastrointestinal disorders ≥Grade 3, number of patients (monotherapy 60 mg/m^2 (n = 3)) | General disorders and administration site conditions ≥Grade 3, number of patients (monotherapy 60 mg/m^2 (n = 3)) | Hallucinations ≥Grade 3, number of patients (monotherapy 60 mg/m^2 (n = 3)) | Heart failure ≥Grade 3, number of patients (monotherapy 60 mg/m^2 (n = 3)) | Hepatic failure ≥Grade 3, number of patients (monotherapy 60 mg/m^2 (n = 3)) | Hepatobiliary disorders ≥Grade 3, number of patients (monotherapy 60 mg/m^2 (n = 3)) | Hypocalcemia ≥Grade 3, number of patients (monotherapy 60 mg/m^2 (n = 3)) | Hypoglycemia ≥Grade 3, number of patients (monotherapy 60 mg/m^2 (n = 3)) | Hypokalemia ≥Grade 3, number of patients (monotherapy 60 mg/m^2 (n = 3)) | Hyponatremia ≥Grade 3, number of patients (monotherapy 60 mg/m^2 (n = 3)) | Hypotension ≥Grade 3, number of patients (monotherapy 60 mg/m^2 (n = 3)) | Hypovolemia ≥Grade 3, number of patients (monotherapy 60 mg/m^2 (n = 3)) | Hypoxia ≥Grade 3, number of patients (monotherapy 60 mg/m^2 (n = 3)) | Investigations ≥Grade 3, number of patients (monotherapy 60 mg/m^2 (n = 3)) | Leukocytosis ≥Grade 3, number of patients (monotherapy 60 mg/m^2 (n = 3)) | Metabolism and nutritional disorders ≥Grade 3, number of patients (monotherapy 60 mg/m^2 (n = 3)) | Multi-organ failure ≥Grade 3, number of patients (monotherapy 60 mg/m^2 (n = 3)) | Musculoskeletal and connective tissue disorders ≥Grade 3, number of patients (monotherapy 60 mg/m^2 (n = 3)) | Penile Pain ≥Grade 3, number of patients (monotherapy 60 mg/m^2 (n = 3)) | Platelet count decreased ≥Grade 3, number of patients (monotherapy 60 mg/m^2 (n = 3)) | Pneumonia ≥Grade 3, number of patients (monotherapy 60 mg/m^2 (n = 3)) | Psychiatric disorders ≥Grade 3, number of patients (monotherapy 60 mg/m^2 (n = 3)) | Renal and urinary disorders ≥Grade 3, number of patients (monotherapy 60 mg/m^2 (n = 3)) | Reproductive system and breast disorders ≥Grade 3, number of patients (monotherapy 60 mg/m^2 (n = 3)) | Respiratory distress ≥Grade 3, number of patients (monotherapy 60 mg/m^2 (n = 3)) | Respiratory failure ≥Grade 3, number of patients (monotherapy 60 mg/m^2 (n = 3)) | Respiratory, thoracic, and mediastinal disorders ≥Grade 3, number of patients (monotherapy 60 mg/m^2 (n = 3)) | Tumor lysis syndrome ≥Grade 3, number of patients (monotherapy 60 mg/m^2 (n = 3)) | Vascular disorders ≥Grade 3, number of patients (monotherapy 60 mg/m^2 (n = 3)) | Abdominal Pain ≥Grade 3, number of patients (monotherapy 90 mg/m^2 (n = 4)) | Acidosis ≥Grade 3, number of patients (monotherapy 90 mg/m^2 (n = 4)) | Acute kidney injury ≥Grade 3, number of patients (monotherapy 90 mg/m^2 (n = 4)) | Back Pain ≥Grade 3, number of patients (monotherapy 90 mg/m^2 (n = 4)) | Cardiac disorders ≥Grade 3, number of patients (monotherapy 90 mg/m^2 (n = 4)) | Cataract ≥Grade 3, number of patients (monotherapy 90 mg/m^2 (n = 4)) | Extremity Lower Edema ≥Grade 3, number of patients (monotherapy 90 mg/m^2 (n = 4)) | Eye disorders ≥Grade 3, number of patients (monotherapy 90 mg/m^2 (n = 4)) | Febrile neutropenia ≥Grade 3, number of patients (monotherapy 90 mg/m^2 (n = 4)) | Gastrointestinal disorders ≥Grade 3, number of patients (monotherapy 90 mg/m^2 (n = 4)) | Hallucinations ≥Grade 3, number of patients (monotherapy 90 mg/m^2 (n = 4)) | Heart failure ≥Grade 3, number of patients (monotherapy 90 mg/m^2 (n = 4)) | Hepatic failure ≥Grade 3, number of patients (monotherapy 90 mg/m^2 (n = 4)) | Hepatobiliary disorders ≥Grade 3, number of patients (monotherapy 90 mg/m^2 (n = 4)) | Hypoglycemia ≥Grade 3, number of patients (monotherapy 90 mg/m^2 (n = 4)) | Hypotension ≥Grade 3, number of patients (monotherapy 90 mg/m^2 (n = 4)) | Hypovolemia ≥Grade 3, number of patients (monotherapy 90 mg/m^2 (n = 4)) | Hypoxia ≥Grade 3, number of patients (monotherapy 90 mg/m^2 (n = 4)) | Multi-organ failure ≥Grade 3, number of patients (monotherapy 90 mg/m^2 (n = 4)) | Musculoskeletal and connective tissue disorders ≥Grade 3, number of patients (monotherapy 90 mg/m^2 (n = 4)) | Neoplasms benign, malignant, and unspecified (incl. cysts and polyps) ≥Grade 3, number of patients (monotherapy 90 mg/m^2 (n = 4)) | Penile Pain ≥Grade 3, number of patients (monotherapy 90 mg/m^2 (n = 4)) | Psychiatric disorders ≥Grade 3, number of patients (monotherapy 90 mg/m^2 (n = 4)) | Renal and urinary disorders ≥Grade 3, number of patients (monotherapy 90 mg/m^2 (n = 4)) | Reproductive system and breast disorders ≥Grade 3, number of patients (monotherapy 90 mg/m^2 (n = 4)) | Respiratory distress ≥Grade 3, number of patients (monotherapy 90 mg/m^2 (n = 4)) | Respiratory failure ≥Grade 3, number of patients (monotherapy 90 mg/m^2 (n = 4)) | Tumor lysis syndrome ≥Grade 3, number of patients (monotherapy 90 mg/m^2 (n = 4)) | Vascular disorders ≥Grade 3, number of patients (monotherapy 90 mg/m^2 (n = 4))
5: Grade: Multi-organ failure [1]
2: AML progression, number of patients (monotherapy 90 mg/m^2 (n = 4)) | Pneumonia ≥Grade 3, number of patients (monotherapy 90 mg/m^2 (n = 4)) | Grade: Edema (limbs) [1] | Grade: Hyperkalemia [1] | Grade: Nausea [1] | Grade: Pain [1] | Grade: Pain in extremity [1] | Grade: Blood creatinine increased [2]
No: Dose-limiting Toxicity (DLT): Coagulopathy [1] | Dose-limiting Toxicity (DLT): Confusion [1] | Dose-limiting Toxicity (DLT): Diarrhea [1] | Dose-limiting Toxicity (DLT): Edema (limbs) [1] | Dose-limiting Toxicity (DLT): Fever (pyrexia) [1] | Dose-limiting Toxicity (DLT): Hyperkalemia [1] | Dose-limiting Toxicity (DLT): Hypocalcemia [1] | Dose-limiting Toxicity (DLT): Hypokalemia [1] | Dose-limiting Toxicity (DLT): Multi-organ failure [1] | Dose-limiting Toxicity (DLT): Nausea [1] | Dose-limiting Toxicity (DLT): Pain [1] | Dose-limiting Toxicity (DLT): Pain in extremity [1] | Dose-limiting Toxicity (DLT): Pruritus [1] | Dose-limiting Toxicity (DLT): Blood creatinine increased [2]
3: Metabolism and nutritional disorders ≥Grade 3, number of patients (monotherapy 90 mg/m^2 (n = 4)) | Grade: Hypokalemia [1] | Grade: Palmar-plantar erythrodysesthesia (hand and foot) syndrome [1]
1^a: Platelet count decreased ≥Grade 3, number of patients (monotherapy 90 mg/m^2 (n = 4))
1: Neoplasms benign, malignant, and unspecified (incl. cysts and polyps) ≥Grade 3, number of patients (monotherapy 60 mg/m^2 (n = 3)) | Patients with AEs ≥Grade 3, number of patients (monotherapy 60 mg/m^2 (n = 3)) | Asthenia ≥Grade 3, number of patients (monotherapy 90 mg/m^2 (n = 4)) | Blood and lymphatic system disorders ≥Grade 3, number of patients (monotherapy 90 mg/m^2 (n = 4)) | Dyspnea ≥Grade 3, number of patients (monotherapy 90 mg/m^2 (n = 4)) | General disorders and administration site conditions ≥Grade 3, number of patients (monotherapy 90 mg/m^2 (n = 4)) | Hypocalcemia ≥Grade 3, number of patients (monotherapy 90 mg/m^2 (n = 4)) | Hypokalemia ≥Grade 3, number of patients (monotherapy 90 mg/m^2 (n = 4)) | Hyponatremia ≥Grade 3, number of patients (monotherapy 90 mg/m^2 (n = 4)) | Investigations ≥Grade 3, number of patients (monotherapy 90 mg/m^2 (n = 4)) | Leukocytosis ≥Grade 3, number of patients (monotherapy 90 mg/m^2 (n = 4)) | Respiratory, thoracic, and mediastinal disorders ≥Grade 3, number of patients (monotherapy 90 mg/m^2 (n = 4)) | Grade: Coagulopathy (related to study drug) [1] | Grade: Confusion [1] | Grade: Diarrhea [1] | Grade: Fever (pyrexia) [1] | Grade: Pruritus [1]
No and Yes ^a: Dose-limiting Toxicity (DLT): Mucositis [1]
4: Patients with AEs ≥Grade 3, number of patients (monotherapy 90 mg/m^2 (n = 4))
Yes ^a: Dose-limiting Toxicity (DLT): Palmar-plantar erythrodysesthesia (hand and foot) syndrome [1]
2 and 4: Grade: Mucositis [1]

— US20200032271A1, “COMBINATION THERAPY WITH LIPOSOMAL ANTISENSE OLIGONUCLEOTIDES” (Bio-Path Holdings, Inc., priority 2016, published 2020)
